The values that follow come from PubChem BioAssay AID1996.

Molecules are shown by their SMILES. Converted amounts (≈) assume the structure as drawn.

The conditions of the data set: buffer; pH 7.4; 200.0 µM.
`CC(NC(=O)c1ccc(Br)o1)C1CC2CCC1C2` (stereo not drawn) had a kinetic solubility of 29.3 µg/mL (≈ 93.8 µM).
`CCOc1ccc(NC(=O)c2c3c(nc4ccccc24)CCC3)cc1` had a solubility (kinetic) of 1.4 µg/mL (≈ 4.21 µM).
The molecule `CSc1nc(-c2ccccc2)nc(N2CCOCC2)c1C(C)=O` gave a solubility (kinetic) of 12 µg/mL (≈ 36.4 µM).
In the case of `Cc1ccccc1CNS(=O)(=O)c1csc(C(N)=O)c1` it was above 46.6 µg/mL; in that of `CCOc1ccc2nc(N(CCN(C)C)C(=O)/C=C/c3cccs3)sc2c1.Cl`, below 0.3 µg/mL; in that of `C=CCSc1nc2sc3c(c2c(=O)n1CC)CCC3`, 0.8 µg/mL (≈ 2.74 µM).
`O=c1cc(-c2ccccc2)nc(/C=C/c2ccccc2)[nH]1`: the kinetic solubility came to 0.4 µg/mL (≈ 1.46 µM).
Take `CN(c1ccc(C(=O)N2CCOCC2)cc1)S(=O)(=O)c1cccs1`: the kinetic solubility turned out to be 46.9 µg/mL (≈ 128 µM).
`N#C/C(=C\c1ccc(Cl)c([N+](=O)[O-])c1)c1ccccn1` showed a kinetic solubility of 2.5 µg/mL (≈ 8.75 µM).
In the case of `Cc1ncc([N+](=O)[O-])n1CC(=O)Nc1ccccc1F`, the kinetic solubility was above 41.7 µg/mL.
Regarding `COC(=O)C1CC(=O)N(Cc2ccccc2)C1` (stereo not drawn), the kinetic solubility is above 35 µg/mL.
For `Cc1ccc(S(=O)(=O)NCC(=O)NC2CC2)cc1`, the kinetic solubility is above 40.2 µg/mL.
With `O=C(OCc1csc(-c2ccccc2)n1)c1ccc(O)cc1`, the solubility (kinetic) was below 0.7 µg/mL.
`COc1ccc(NC(=O)c2cnc(SC)nc2C)c(OC)c1` gave a kinetic solubility above 47.9 µg/mL.
The molecule `COc1ccc(Br)cc1C(=O)Nc1cccc2ncccc12` yielded a solubility (kinetic) of 1.7 µg/mL (≈ 4.76 µM).
As to `CCCN(Cc1ccccc1)C(=S)Nc1ccc(OCC)cc1`, the solubility (kinetic) worked out at 17.9 µg/mL (≈ 54.5 µM).
The molecule `C=CCNC(=O)N1CCC(c2nc3ccccc3s2)CC1` registered a solubility (kinetic) above 45.2 µg/mL.
In the case of `COc1ccc(C(=O)OCC(=O)Nc2c(C)cccc2C)cc1` it was below 0.7 µg/mL; in that of `O=C1Nc2ccc(S(=O)(=O)N(CCO)CCO)c3cccc1c23`, above 50.5 µg/mL; in that of `O=C(Nc1ccc(Cl)cc1)c1ccc(-c2ccccn2)s1`, below 0.3 µg/mL.
Next, `COC(=O)C(C)N=Cc1ccccc1` (stereo not drawn): 21 µg/mL (≈ 110 µM).
Next, `CCN(CC)C(=O)C(Oc1ccc(C)nc1[N+](=O)[O-])c1ccccc1` (stereo not drawn): 48.6 µg/mL (≈ 142 µM); `CCSc1nc(C)nc2sc(C)c(C)c12`: below 0.3 µg/mL.
As for `O=C1/C(=C\c2ccco2)SC(=S)N1C1CCS(=O)(=O)C1` (stereo not drawn), the solubility (kinetic) turned out to be 6.6 µg/mL (≈ 20 µM).
`OCCN1CCN(CC#CCC(c2ccccc2)c2ccccc2)CC1` came in with a solubility (kinetic) above 52.3 µg/mL.
Molecule `O=C(NCCCn1ccnc1)c1ccc(C(F)(F)F)cc1` gave a solubility (kinetic) above 44.6 µg/mL.
Consider `CCOc1ccc(CN2CCC(Cc3ccccc3)CC2)cc1`, for which the kinetic solubility is 24.3 µg/mL (≈ 78.5 µM).
In turn, `O=C(COC(=O)/C=C/c1ccccc1)NC(=O)NC1CCCCC1` yielded a kinetic solubility of 8.8 µg/mL (≈ 26.6 µM).
In the case of `CC(Cc1ccccc1)NC(=S)CN1CCCC1=S` (stereo not drawn) it was 38.9 µg/mL (≈ 133 µM); in that of `OC(c1ccccc1)c1nccc2ccccc12` (stereo not drawn), above 35.3 µg/mL; in that of `O=C(Nc1cccc(Cl)c1)c1ccc2ncsc2c1`, 21.2 µg/mL (≈ 73.4 µM).
Molecule `O=C(NCc1cc2ccccc2[nH]1)c1ccccc1F` showed a kinetic solubility above 40.2 µg/mL.
`COc1ccc(OCC(=O)Nc2ccncc2)cc1` gave a solubility (kinetic) above 38.7 µg/mL.
Next, `Cc1ccc2[nH]c(C)c(CCNC(=O)NC3CCCCC3)c2c1`: 1 µg/mL (≈ 3.19 µM); `O=C(O)CNC(=O)/C=C/c1c(Cl)cccc1Cl`: above 41.1 µg/mL.
As to `CC(C)(CNc1ccc([N+](=O)[O-])cc1Cl)N1CCOCC1`, the kinetic solubility was 1.4 µg/mL (≈ 4.46 µM).
Next, `COc1ccc(-c2csc3ncn(Cc4ccccc4)c(=O)c23)cc1`: 1.4 µg/mL (≈ 4.02 µM); `O=C1CCCN1C(=O)CSc1ccc2ccccc2n1`: 41.9 µg/mL (≈ 146 µM).
The molecule `CC(=O)Nc1ccc(S(=O)(=O)N(C)CC(=O)N2CCN(C(=O)c3ccco3)CC2)cc1` showed a solubility (kinetic) above 67.3 µg/mL.
In turn, `S=C1SCN(CC2CC2)CN1CC1CC1` yielded a solubility (kinetic) above 36.4 µg/mL.
In the case of `CC(C(=O)N1CCN(c2ccccc2)CC1)c1ccc([N+](=O)[O-])cc1` (stereo not drawn), the kinetic solubility came out at 40.7 µg/mL (≈ 120 µM).
For the molecule `O=C(/C=C/c1cccc([N+](=O)[O-])c1)N1CC[C@@]2(O)CCCC[C@H]2C1`, the solubility (kinetic) was above 49.6 µg/mL.
In the case of `Cc1ccnc(NS(=O)(=O)c2cc(C(F)(F)F)ccc2Cl)c1` it was 1.7 µg/mL (≈ 4.85 µM); in that of `CC[N+](CC)(CC)CC(=O)Nc1c(C)cccc1C.[Br-]`, above 51.5 µg/mL; in that of `COc1ccc(C(=O)N2CCC(O)(c3ccc(Cl)cc3)CC2)cc1OC`, above 56.4 µg/mL.
For the molecule `CCCCNC(=O)N1CCN(c2ccnc3cc(Cl)ccc23)CC1`, the kinetic solubility is above 52 µg/mL.
`O=C(/C=C/c1ccco1)Nc1ccc2c(c1)OCCO2` came in with a kinetic solubility above 40.7 µg/mL.
In the case of `Cc1cccc(C)c1NC(=S)N/N=C/c1ccc(C(=O)O)cc1` it was above 49.1 µg/mL.
As for `COc1ccc(C(=O)NCC(=O)Nc2cccc(S(=O)(=O)N3CCCC3)c2)cc1`, the kinetic solubility came out at 60.1 µg/mL (≈ 144 µM).
For `CC(=O)Nc1ccc(NC(=O)c2ccc(OCc3c(C)noc3C)cc2)cc1`, the solubility (kinetic) came to 2.2 µg/mL (≈ 5.8 µM).
In the case of `COc1ccc(NC(=O)CC2CCCC2)cc1OC`, the solubility (kinetic) is above 39.5 µg/mL.
As to `O=c1c2ccccc2nc2n1C(CSc1ccccc1)CS2` (stereo not drawn), the solubility (kinetic) is above 49 µg/mL.
Next, `COCCCNC(=O)c1c(N)n(Cc2ccco2)c2nc3ccccc3nc12`: 4.8 µg/mL (≈ 12.7 µM).
In the case of `O=C(OCc1cccc([N+](=O)[O-])c1)c1cccnc1Cl`, the solubility (kinetic) stood at 5.4 µg/mL (≈ 18.5 µM).
Next, `CN(Cc1c(O)ccc2c1oc(=O)c1ccccc12)C1CCCCC1`: above 50.6 µg/mL; `Cc1ccc(C(=O)C(C)OC(=O)Cn2c(C)csc2=O)cc1` (stereo not drawn): above 47.9 µg/mL.
Molecule `CC1CCN(S(=O)(=O)c2c[nH]c(=O)[nH]c2=O)CC1` displayed a kinetic solubility above 41 µg/mL.
Next, `CCC(C)C(=O)Nc1ccc(S(=O)(=O)Nc2nccs2)cc1` (stereo not drawn): above 50.9 µg/mL; `CCOC(=O)CCSc1cc(C)c2ccccc2n1`: 4.3 µg/mL (≈ 15.6 µM); `O=C1[C@@H]2C(c3ccc(F)cc3)=NO[C@@H]2C(=O)N1Cc1ccccc1`: 7.8 µg/mL (≈ 24.1 µM).
On to `CCn1cc(C2=NC(CC(C)C)CO2)c2ccccc21` (stereo not drawn), for which the kinetic solubility came out at 9.7 µg/mL (≈ 35.9 µM).
Next, `CCOC(=O)C1(Cc2cccc(F)c2)CCN(CC2CC2)CC1`: above 47.9 µg/mL.
In the case of `Cc1c(Cc2ccccc2)sc(NC(=O)C(C)(C)C)c1C(N)=O` it was 17.7 µg/mL (≈ 53.6 µM).
On to `Cc1cccn2c(=O)c3cc(C(=O)N4COCC4(C)C)sc3nc12`, for which the kinetic solubility was found to be 9.2 µg/mL (≈ 26.8 µM).
For `COc1ccc(N(C)C(=O)c2sc(Cl)nc2C)cc1`, the solubility (kinetic) turned out to be 42.7 µg/mL (≈ 144 µM).
The molecule `O=C(Cc1c(F)cccc1Cl)NCCN1CCOCC1` displayed a solubility (kinetic) above 45.1 µg/mL.
With `COc1ccc(CCC(=O)OCC(=O)c2ccc[nH]2)cc1OC`, the kinetic solubility was above 47.6 µg/mL.
In the case of `CN1CCN(c2ncc(CN3C(=O)c4ccccc4C3=O)s2)CC1` it was above 51.4 µg/mL.
As for `Cc1ccc(NC(=O)c2cc(C)nc3ccccc23)cc1`, the solubility (kinetic) was found to be 2.1 µg/mL (≈ 7.6 µM).
In the case of `COc1cc2c(cc1OC)/C(=C/C(=O)c1ccc(F)cc1)NCC2`, the solubility (kinetic) was determined as 25.7 µg/mL (≈ 78.5 µM).
Next, `Cc1ccc(NC(=O)NC2CCCCCCC2)c(C)c1`: below 0.3 µg/mL; `O=C(NCCc1ccccc1)c1cc([N+](=O)[O-])ccc1N1CCOCC1`: 53.2 µg/mL (≈ 150 µM).
In the case of `CCN(CC)CCN(C(=O)c1cc2ccccc2cc1OC)c1nc2ccc(OC)cc2s1.Cl` it was 3.7 µg/mL; in that of `CC(=O)c1cccc(NC(=O)c2cc(=O)[nH]c3ccc(S(=O)(=O)N4CCOCC4)cc23)c1`, 8.5 µg/mL (≈ 18.7 µM).
With `CC(C)c1ccccc1OCC(=O)N1CCCCCCC1`, the kinetic solubility is 18.8 µg/mL (≈ 65 µM).
The molecule `O=C(NC(=S)Nc1ccc(Br)cn1)c1cccnc1` gave a kinetic solubility of 3 µg/mL (≈ 8.9 µM).
As to `Cc1ccc(SCC(=O)NCCc2ccc(F)cc2)cc1`, the solubility (kinetic) came to 13.6 µg/mL (≈ 44.8 µM).
`CCN(C(=O)COC(=O)c1ccc[nH]c1=O)c1cccc2ccccc12` registered a kinetic solubility above 52.6 µg/mL.
In turn, `Cc1cccc(C(=O)Nc2cccc3cccnc23)c1` returned a solubility (kinetic) of 2.6 µg/mL (≈ 9.91 µM).
With `CCOC(=O)c1[nH]c(C=O)c(C(=O)OCC)c1C`, the kinetic solubility turned out to be 20.7 µg/mL (≈ 81.7 µM).
With `Cc1cc(C)nc(/N=C(\NC(=O)C(C)(C)C)Nc2ccc(F)cc2)n1`, the kinetic solubility is 0.5 µg/mL (≈ 1.46 µM).
Next, `CNc1nc(N)c([N+](=O)[O-])c(Nc2cccc(Cl)c2)n1`: 0.4 µg/mL (≈ 1.36 µM).
Consider `Cc1ccc(S(=O)(=O)NC(Cc2ccccc2)C(=O)O)cc1C` (stereo not drawn), for which the kinetic solubility is above 50 µg/mL.
In the case of `FC(F)(F)c1cccc(-c2nc(-c3ccncc3)no2)c1` it was 0.4 µg/mL (≈ 1.37 µM).
Molecule `CCOc1ccc(/C=C2\SC(N3CCCCC3)=NC2=O)cc1` had a solubility (kinetic) of 1.6 µg/mL (≈ 5.06 µM).
For the molecule `Cn1ccnc1CC(O)(c1ccccc1)c1ccccc1`, the solubility (kinetic) came to 20.4 µg/mL (≈ 73.3 µM).
With `O=C(Nc1ccc(C(=O)N2CCCC2)cc1)c1ccccc1[N+](=O)[O-]`, the kinetic solubility amounted to 48.2 µg/mL (≈ 142 µM).
In the case of `COC(=O)c1cc2ccccc2n1Cc1ccc(Cl)nc1` it was 1.5 µg/mL (≈ 4.99 µM); in that of `NC(=O)CC(CC(=O)OCc1ccccc1)c1ccccc1` (stereo not drawn), 38 µg/mL (≈ 128 µM).
The molecule `CCOC(=O)C1CCN(C(=O)CSc2nc3ncccc3[nH]2)CC1` yielded a solubility (kinetic) of 51.5 µg/mL (≈ 148 µM).
In turn, `N#Cc1ccc(C(=O)NC2=NCCS2)cc1` yielded a kinetic solubility of 21.8 µg/mL (≈ 94.3 µM).
Molecule `CC(OC(=O)CNC(=O)C1CCCCC1)C(=O)NCc1ccccc1` (stereo not drawn) had a solubility (kinetic) above 52 µg/mL.
The molecule `Cc1oc(C(N)=O)cc1COc1ccc(C(N)=O)cc1` showed a kinetic solubility of 32.9 µg/mL (≈ 120 µM).
`O=C(CCC(=O)c1ccccc1)NCCOc1ccccc1` returned a solubility (kinetic) above 44.6 µg/mL.
The molecule `O=C(Nc1cccc([N+](=O)[O-])c1)NC1CCCCCCC1` gave a solubility (kinetic) of 3.8 µg/mL (≈ 13 µM).
In the case of `Cn1ccnc1C(=O)c1ccc(S(=O)(=O)N2CCCC2)cc1` it was above 47.9 µg/mL.
Turning to `O=c1[nH]c2c(c(=O)[nH]1)CCC2`, the kinetic solubility was above 22.8 µg/mL.
In turn, `O=C(Nc1ccc(Cl)c(S(=O)(=O)N2CCOCC2)c1)c1ccncc1` showed a kinetic solubility above 57.3 µg/mL.
For the molecule `Cn1c(=O)oc2cc(S(=O)(=O)NCc3ccc(C(=O)O)cc3)ccc21`, the solubility (kinetic) was above 54.4 µg/mL.
Next, `CSc1ccccc1NC(=O)COC(=O)c1cnc(C)cn1`: above 47.6 µg/mL.
`COc1ccc(OC)c(NC(=O)CCNC(=O)c2ccco2)c1` registered a solubility (kinetic) of 44.7 µg/mL (≈ 140 µM).
`CCOc1cc(C=O)ccc1OCC(=O)N1CCCC1` had a kinetic solubility above 41.6 µg/mL.
In the case of `Cc1cc(=O)oc2cc(OCC(O)Cn3ccnc3)ccc12` (stereo not drawn), the solubility (kinetic) is above 45 µg/mL.
